From ChEMBL document CHEMBL5465560, “Selectivity Literature for EUbOPEN Chemogenomic Library” (2024)

How the values were obtained:
[1] = biological target: 5'-AMP-activated protein kinase catalytic subunit alpha-1 (Homo sapiens, UniProt Q13131); assay: Selectivity interaction (Kinase panel (Enzyme activity assay)) EUB0000612a PRKAA1
[2] = biological target: Serine/threonine-protein kinase PLK1 (Homo sapiens, UniProt P53350)
[3] = biological target: Atypical kinase COQ8A, mitochondrial (Homo sapiens, UniProt Q8NI60); assay: Selectivity interaction (LanthaScreen Eu Kinase Binding Assay) EUB0001632a ADCK3; settings: at 10 µM
Sequence of Atypical kinase COQ8A, mitochondrial (Q8NI60 163-647 limits assumed): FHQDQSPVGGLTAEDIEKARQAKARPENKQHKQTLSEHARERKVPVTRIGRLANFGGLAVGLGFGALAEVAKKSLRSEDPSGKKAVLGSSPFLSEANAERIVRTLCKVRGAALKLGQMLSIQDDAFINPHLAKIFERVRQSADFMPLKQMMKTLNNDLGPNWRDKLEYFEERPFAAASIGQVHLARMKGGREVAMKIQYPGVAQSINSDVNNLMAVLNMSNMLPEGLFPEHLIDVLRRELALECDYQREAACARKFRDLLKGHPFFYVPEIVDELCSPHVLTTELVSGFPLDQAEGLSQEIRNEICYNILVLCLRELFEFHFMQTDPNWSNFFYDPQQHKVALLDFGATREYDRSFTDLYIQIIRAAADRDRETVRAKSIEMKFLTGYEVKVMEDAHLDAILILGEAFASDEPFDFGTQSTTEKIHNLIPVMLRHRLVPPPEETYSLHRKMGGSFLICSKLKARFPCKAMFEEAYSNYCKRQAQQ

[4] = biological target: Tyrosine-protein kinase HCK (Homo sapiens) (UniProt P08631); assay: Selectivity interaction (KinomeScan (DiscoverX)) EUB0000695a HCK; settings: at 100 nM
Sequence of Tyrosine-protein kinase HCK (Homo sapiens) (P08631 2-526 limits assumed): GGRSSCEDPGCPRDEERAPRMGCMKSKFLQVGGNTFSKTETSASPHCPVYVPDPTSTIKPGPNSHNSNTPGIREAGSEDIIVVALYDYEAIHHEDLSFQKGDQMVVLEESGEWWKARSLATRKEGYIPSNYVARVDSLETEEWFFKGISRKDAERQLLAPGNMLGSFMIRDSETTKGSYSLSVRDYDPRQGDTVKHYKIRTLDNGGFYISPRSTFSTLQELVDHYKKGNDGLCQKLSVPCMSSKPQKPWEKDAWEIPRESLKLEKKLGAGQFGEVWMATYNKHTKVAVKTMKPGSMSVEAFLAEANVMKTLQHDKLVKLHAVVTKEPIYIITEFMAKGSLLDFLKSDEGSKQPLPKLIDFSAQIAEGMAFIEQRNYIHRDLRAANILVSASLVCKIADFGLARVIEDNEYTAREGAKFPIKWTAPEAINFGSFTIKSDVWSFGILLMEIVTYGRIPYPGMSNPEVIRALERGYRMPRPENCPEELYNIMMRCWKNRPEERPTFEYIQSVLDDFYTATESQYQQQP

[5] = biological target: T1, Phosphatidylinositol 5-phosphate 4-kinase type-2 beta (Homo sapiens) (UniProt P78356); assay: Selectivity interaction (KinomeScan (DiscoverX)) EUB0000695a PIP4K2B; settings: at 100 nM
T1 sequence (whole entry): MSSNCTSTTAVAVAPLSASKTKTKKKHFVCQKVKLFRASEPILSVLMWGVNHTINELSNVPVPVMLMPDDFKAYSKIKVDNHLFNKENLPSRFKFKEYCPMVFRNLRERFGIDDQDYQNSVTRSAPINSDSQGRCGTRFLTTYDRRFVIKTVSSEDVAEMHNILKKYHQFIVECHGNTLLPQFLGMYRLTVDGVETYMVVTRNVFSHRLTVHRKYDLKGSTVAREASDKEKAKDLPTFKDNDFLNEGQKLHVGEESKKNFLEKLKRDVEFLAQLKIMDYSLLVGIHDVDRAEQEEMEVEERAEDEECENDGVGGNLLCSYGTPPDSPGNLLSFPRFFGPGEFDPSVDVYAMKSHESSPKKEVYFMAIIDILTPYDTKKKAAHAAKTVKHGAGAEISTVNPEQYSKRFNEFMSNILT

[6] = biological target: Casein kinase I isoform epsilon (Homo sapiens, UniProt P49674); settings: at 10 µM
Sequence of Casein kinase I isoform epsilon (P49674 whole entry, looked up, canonical isoform): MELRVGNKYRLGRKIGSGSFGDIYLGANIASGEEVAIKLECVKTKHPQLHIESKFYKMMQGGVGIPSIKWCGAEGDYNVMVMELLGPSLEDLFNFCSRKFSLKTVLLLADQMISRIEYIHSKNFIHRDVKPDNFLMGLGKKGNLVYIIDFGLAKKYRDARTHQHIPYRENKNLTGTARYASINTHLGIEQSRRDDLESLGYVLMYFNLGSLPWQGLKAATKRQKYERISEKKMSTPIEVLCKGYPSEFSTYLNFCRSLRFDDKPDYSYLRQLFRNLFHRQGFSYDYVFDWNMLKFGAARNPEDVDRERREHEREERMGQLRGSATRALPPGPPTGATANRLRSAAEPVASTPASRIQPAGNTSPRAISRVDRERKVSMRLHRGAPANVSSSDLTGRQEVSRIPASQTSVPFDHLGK

[7] = biological target: Serine/threonine-protein kinase 38-like (Homo sapiens) (UniProt Q9Y2H1); settings: at 10 µM
Sequence of Serine/threonine-protein kinase 38-like (Homo sapiens) (Q9Y2H1 2-464 limits assumed): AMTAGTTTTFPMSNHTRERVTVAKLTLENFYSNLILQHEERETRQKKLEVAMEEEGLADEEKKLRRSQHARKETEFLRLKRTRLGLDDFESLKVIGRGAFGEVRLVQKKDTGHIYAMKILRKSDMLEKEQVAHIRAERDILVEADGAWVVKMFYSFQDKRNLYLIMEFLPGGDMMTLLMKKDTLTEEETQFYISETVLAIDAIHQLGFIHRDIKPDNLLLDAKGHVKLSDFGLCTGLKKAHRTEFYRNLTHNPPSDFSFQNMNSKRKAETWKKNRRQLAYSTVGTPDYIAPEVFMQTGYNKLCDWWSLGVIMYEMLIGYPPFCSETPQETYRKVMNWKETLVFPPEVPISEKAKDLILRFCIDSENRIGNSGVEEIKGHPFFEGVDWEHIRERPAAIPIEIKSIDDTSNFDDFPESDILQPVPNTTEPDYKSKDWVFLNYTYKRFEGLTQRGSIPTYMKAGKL

[8] = biological target: Ribosomal protein S6 kinase beta-1 (Homo sapiens, UniProt P23443); assay: Selectivity interaction (KinomeScan (DiscoverX)) EUB0001079a RPS6KB1; settings: at 1 µM
Sequence of Ribosomal protein S6 kinase beta-1 (P23443 whole entry, looked up): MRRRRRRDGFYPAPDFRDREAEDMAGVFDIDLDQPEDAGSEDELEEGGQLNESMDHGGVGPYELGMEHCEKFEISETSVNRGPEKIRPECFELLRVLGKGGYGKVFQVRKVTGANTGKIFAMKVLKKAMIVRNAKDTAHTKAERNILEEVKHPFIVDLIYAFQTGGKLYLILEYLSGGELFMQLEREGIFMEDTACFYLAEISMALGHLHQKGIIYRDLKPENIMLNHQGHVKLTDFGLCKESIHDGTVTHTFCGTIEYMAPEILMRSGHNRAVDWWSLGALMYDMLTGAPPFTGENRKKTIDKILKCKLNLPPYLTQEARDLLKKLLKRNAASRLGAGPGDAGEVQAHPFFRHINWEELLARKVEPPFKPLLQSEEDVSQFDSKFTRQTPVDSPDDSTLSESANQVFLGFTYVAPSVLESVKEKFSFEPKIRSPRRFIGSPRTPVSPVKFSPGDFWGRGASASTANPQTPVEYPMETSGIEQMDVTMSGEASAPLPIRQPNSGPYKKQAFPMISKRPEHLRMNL

[9] = biological target: T2, Dual specificity mitogen-activated protein kinase kinase 6 (Homo sapiens) (UniProt P52564); assay: Selectivity interaction (KinomeScan (DiscoverX)) EUB0000092b MAP2K6; settings: at 10 µM
T2 sequence (whole entry): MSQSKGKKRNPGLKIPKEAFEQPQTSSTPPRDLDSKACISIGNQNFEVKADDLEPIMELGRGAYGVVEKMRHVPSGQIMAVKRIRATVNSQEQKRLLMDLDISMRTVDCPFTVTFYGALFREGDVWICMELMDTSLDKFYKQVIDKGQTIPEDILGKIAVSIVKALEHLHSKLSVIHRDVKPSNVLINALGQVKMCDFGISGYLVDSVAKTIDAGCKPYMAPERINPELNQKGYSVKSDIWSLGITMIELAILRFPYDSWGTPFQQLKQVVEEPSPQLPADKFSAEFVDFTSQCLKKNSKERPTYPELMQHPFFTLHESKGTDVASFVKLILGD

[10] = biological target: Casein kinase I isoform alpha (Homo sapiens, UniProt P48729); assay: Selectivity interaction (KinomeScan (DiscoverX)) EUB0000655a CSNK1A1; settings: at 10 µM
Sequence of Casein kinase I isoform alpha (P48729 2-337 limits assumed): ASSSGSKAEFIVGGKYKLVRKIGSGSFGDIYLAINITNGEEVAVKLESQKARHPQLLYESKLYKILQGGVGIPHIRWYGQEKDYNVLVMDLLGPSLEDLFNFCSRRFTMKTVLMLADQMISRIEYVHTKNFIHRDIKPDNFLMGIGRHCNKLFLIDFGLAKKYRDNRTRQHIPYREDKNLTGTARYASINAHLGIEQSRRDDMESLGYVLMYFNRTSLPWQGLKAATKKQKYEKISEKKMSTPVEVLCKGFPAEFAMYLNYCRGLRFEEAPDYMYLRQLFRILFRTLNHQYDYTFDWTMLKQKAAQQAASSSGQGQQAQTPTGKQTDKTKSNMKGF

[11] = biological target: T3, Serine/threonine-protein kinase 17A (Homo sapiens) (UniProt Q9UEE5); assay: Selectivity interaction (KinomeScan (DiscoverX)) EUB0000618a STK17A; settings: at 10 µM
T3 sequence (whole entry): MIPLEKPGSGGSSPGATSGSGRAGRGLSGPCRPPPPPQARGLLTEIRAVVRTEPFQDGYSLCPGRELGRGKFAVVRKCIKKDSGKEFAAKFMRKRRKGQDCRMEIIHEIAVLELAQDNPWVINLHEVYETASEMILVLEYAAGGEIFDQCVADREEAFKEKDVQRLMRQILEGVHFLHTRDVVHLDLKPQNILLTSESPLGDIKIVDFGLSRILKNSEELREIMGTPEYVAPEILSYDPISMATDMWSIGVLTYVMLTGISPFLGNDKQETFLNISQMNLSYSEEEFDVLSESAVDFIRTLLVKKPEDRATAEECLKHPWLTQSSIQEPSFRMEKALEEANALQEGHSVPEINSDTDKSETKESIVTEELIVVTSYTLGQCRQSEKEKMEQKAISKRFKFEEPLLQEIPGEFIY

[12] = biological target: T2, Dual specificity mitogen-activated protein kinase kinase 6 (Homo sapiens); assay: Selectivity interaction (SelectScreen profiling (Invitrogen)) EUB0000607a MAP2K6; settings: at 2 µM
[13] = biological target: T4, Ephrin type-A receptor 1 (Homo sapiens) (UniProt P21709); assay: Selectivity interaction (KinomeScan (DiscoverX)) EUB0000666a EPHA1; settings: at 10 µM
T4 sequence (whole entry): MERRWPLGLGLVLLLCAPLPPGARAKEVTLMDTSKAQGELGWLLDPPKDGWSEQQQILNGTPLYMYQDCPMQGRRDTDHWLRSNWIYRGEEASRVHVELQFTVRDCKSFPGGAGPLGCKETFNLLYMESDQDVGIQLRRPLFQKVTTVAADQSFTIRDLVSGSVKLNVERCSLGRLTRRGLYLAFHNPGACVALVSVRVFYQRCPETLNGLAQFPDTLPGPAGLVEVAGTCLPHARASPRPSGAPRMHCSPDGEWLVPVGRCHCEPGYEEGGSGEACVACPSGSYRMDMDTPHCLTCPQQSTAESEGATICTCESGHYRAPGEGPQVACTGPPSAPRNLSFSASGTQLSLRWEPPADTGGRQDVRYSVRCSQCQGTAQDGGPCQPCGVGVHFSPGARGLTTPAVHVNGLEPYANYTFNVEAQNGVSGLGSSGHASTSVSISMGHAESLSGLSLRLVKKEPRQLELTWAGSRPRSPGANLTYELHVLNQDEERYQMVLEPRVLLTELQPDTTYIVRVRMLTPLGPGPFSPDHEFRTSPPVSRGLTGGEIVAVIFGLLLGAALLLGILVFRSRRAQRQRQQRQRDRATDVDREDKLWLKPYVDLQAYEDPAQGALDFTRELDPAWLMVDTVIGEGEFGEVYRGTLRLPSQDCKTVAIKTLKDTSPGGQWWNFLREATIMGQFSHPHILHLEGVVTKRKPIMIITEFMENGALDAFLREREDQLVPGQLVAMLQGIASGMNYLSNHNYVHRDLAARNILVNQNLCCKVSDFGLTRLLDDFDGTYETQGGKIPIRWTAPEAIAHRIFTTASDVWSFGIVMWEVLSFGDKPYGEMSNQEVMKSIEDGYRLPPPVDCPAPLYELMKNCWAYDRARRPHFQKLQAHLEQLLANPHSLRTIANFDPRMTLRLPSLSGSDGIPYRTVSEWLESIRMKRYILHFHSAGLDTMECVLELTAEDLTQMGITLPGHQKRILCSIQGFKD

Sequence of 5'-AMP-activated protein kinase catalytic subunit alpha-1 (Q13131 whole entry): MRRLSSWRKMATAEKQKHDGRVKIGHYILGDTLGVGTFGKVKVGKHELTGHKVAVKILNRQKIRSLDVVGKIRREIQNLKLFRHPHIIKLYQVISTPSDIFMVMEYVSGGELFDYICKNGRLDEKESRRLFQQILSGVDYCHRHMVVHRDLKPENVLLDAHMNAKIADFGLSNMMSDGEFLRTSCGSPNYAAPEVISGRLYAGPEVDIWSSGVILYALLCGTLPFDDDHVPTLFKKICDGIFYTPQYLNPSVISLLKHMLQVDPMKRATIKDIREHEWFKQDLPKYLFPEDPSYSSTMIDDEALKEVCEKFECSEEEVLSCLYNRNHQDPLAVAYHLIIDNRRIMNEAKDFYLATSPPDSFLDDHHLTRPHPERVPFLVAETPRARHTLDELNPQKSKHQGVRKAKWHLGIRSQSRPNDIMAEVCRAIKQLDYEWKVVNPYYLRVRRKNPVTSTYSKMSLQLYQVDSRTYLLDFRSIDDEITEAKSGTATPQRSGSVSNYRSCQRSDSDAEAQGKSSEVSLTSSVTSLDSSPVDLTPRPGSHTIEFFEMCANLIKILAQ
Sequence of Serine/threonine-protein kinase PLK1 (P53350 whole entry): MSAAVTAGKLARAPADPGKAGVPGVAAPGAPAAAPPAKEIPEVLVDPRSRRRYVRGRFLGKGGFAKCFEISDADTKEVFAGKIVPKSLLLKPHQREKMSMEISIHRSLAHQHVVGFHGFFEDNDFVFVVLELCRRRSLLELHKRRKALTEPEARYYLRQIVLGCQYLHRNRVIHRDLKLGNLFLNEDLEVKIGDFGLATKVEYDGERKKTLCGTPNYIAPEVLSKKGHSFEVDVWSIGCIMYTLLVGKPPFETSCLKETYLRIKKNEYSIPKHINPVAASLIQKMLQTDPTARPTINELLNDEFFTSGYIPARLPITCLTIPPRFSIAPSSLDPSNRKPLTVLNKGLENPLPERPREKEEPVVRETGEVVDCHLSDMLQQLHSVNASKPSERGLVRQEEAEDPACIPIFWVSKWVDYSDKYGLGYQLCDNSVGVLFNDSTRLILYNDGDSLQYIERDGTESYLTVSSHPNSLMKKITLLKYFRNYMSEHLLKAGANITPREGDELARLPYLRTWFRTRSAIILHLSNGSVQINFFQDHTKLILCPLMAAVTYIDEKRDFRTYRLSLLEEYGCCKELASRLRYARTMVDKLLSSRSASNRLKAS

`CCc1cccc(CC)c1NC(=O)c1nn(C)c2c1CCc1cnc(Nc3ccc(C(=O)NC4CCN(C)CC4)cc3OC(F)(F)F)nc1-2` was tested, and the IC50 [1] was over 10 µM and the IC50 [2] was over 10 µM.
In the case of `Cn1cc(-n2cnc3c(NCc4nc5cc(Cl)c(Cl)cc5[nH]4)nc(N4CCOCC4)nc32)cn1`, the % of inhibition [3] is reported as 8.48%.
For `Cc1cc(F)c(C(=O)Nc2cccc(-c3nncn3C(C)C)n2)cc1-n1cnc(C2CC2)c1`, the % of control [4] was 100% and the % of control [5] was 92%.
`CCN(CC)CCCCNc1ncc2cc(-c3cc(OC)cc(OC)c3)c(NC(=O)NC(C)(C)C)nc2n1` showed a % of control [6] of 100% and a % of control [7] of 100%.
In the case of `Nc1cnc(N2CCc3cc(S(=O)(=O)Nc4c(F)cc(Cl)cc4F)cc(N4CCCC4=O)c32)nc1` [TP-020n], the % of control [8] is reported as 83%.
`CCC(=O)N1CCN(c2ccc(-n3c(=O)ccc4cnc5ccc(-c6cnc7ccccc7c6)cc5c43)cc2C(F)(F)F)CC1` was tested, and the % of control [9] was 100%.
`CN(C)CCOc1ccc(-c2nc(-c3ccncc3)c(-c3ccc4c(c3)CC/C4=N\O)[nH]2)cc1` showed a % of control [10] of 38%.
For `O[C@H]1CC[C@H](Nc2ncc3nc(Nc4c(F)cc(F)cc4F)n([C@H]4CCOC4)c3n2)CC1`, the % of control [11] was 100%.
For `CNC(=O)Nc1ccc(-c2nc(N3CC4CCC(C3)O4)c3cnn(C4CCC5(CC4)OCCO5)c3n2)cc1`, the % of inhibition [12] was 8%.
For `O=C(NOC[C@H](O)CO)c1ccc(F)c(F)c1Nc1ccc(I)cc1F`, the % of control [13] was 91%.
